Legend:
[1] = biological target: T1, IRAK1 (Homo sapiens, UniProt P51617); experiment: IRAK1 enzymatic assay (ADP-Glo luminescence); format: biochemical; conditions: purified human recombinant His-TEV-IRAK1 (194-712)
T1 construct: His-TEV-IRAK1 (194-712); His (N); TEV cleavage site (N)
Method in brief: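 Luminescent ADP-Glo read-out of ATP turnover by purified His-TEV-IRAK1 (194-712) at 0.3 μg/ml after a 2-hour RT reaction. Compounds, serially diluted from 10 μM to 0.5 nM, were preincubated with enzyme 15 minutes in Hepes pH 7.0 buffer with MgCl2, DTT, EGTA and Triton X-100.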

[2] = biological target: T2, IRAK4 (Homo sapiens, UniProt Q9NWZ3); experiment: IRAK4 enzymatic assay (ADP-Glo luminescence); format: biochemical; conditions: purified human recombinant His-TEV-IRAK4 (1-460), ATP 2 μM
T2 construct: His-TEV-IRAK4 (1-460); His (N); TEV cleavage site (N)
T2 sequence (Q9NWZ3 1-460): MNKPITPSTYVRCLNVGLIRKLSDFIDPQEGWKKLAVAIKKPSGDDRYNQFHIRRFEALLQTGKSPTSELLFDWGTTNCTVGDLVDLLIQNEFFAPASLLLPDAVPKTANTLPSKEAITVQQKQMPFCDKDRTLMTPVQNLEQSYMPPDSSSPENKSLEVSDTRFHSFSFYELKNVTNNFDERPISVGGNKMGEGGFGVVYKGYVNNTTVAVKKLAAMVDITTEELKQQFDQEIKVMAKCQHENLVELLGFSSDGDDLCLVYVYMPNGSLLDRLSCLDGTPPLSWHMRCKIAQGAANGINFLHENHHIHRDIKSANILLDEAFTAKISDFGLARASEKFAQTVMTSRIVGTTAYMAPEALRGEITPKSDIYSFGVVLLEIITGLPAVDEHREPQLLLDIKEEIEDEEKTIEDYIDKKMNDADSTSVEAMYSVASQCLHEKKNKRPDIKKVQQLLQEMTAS
Method in brief: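 ADP-Glo luminescence read-out after a 2 h RT kinase reaction with 2 μM ATP and 300 nM biotinylated STK1 peptide. Enzyme (His-TEV-IRAK4 1-460, 0.3 μg/ml) first incubated 15 min with serially diluted compounds (10 μM–0.5 nM) in 50 mM Hepes pH 7.0, 10 mM MgCl2, 5 mM MnCl2.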

T1 sequence (P51617 194-712): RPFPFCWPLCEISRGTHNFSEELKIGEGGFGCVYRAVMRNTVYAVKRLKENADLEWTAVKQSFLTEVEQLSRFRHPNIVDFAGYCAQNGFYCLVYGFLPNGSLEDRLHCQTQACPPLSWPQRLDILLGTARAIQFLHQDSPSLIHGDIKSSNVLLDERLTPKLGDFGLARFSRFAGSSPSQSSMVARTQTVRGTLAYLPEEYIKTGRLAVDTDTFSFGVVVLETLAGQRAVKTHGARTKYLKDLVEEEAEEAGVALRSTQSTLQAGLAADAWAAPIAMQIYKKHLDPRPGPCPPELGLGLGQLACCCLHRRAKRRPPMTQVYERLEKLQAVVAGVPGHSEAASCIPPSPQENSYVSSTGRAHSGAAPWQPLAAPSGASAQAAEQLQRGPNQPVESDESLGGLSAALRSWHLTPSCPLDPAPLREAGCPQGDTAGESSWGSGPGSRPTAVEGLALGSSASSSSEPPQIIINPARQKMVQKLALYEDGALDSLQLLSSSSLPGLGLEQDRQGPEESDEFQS

SMILES	IC50 [1]	IC50 [2]
CS(=O)(=O)CCCn1/c(=N/C(=O)c2cccc(C(F)F)c2)[nH]c2cc(N3CCOCC3=O)ccc21 [Compound 90, (E)-3-(difluoromethyl)-N-(1-(3-(methylsulfonyl)propyl)-5-(3-oxomorpholino)-1H-benzo[d]imidazol-2(3H)-ylidene)benzamide]	≤ 100 nM	≤ 100 nM
C[S+]([O-])CCCn1/c(=N/C(=O)c2cccc(C(F)F)c2)[nH]c2cc(N3CCOCC3=O)ccc21 (centres unmarked) [Compound 91, (E)-3-(difluoromethyl)-N-(1-(3-(methylsulfinyl)propyl)-5-(3-oxomorpholino)-1H-benzo[d]imidazol-2(3H)-ylidene)benzamide]	100 to 1000 nM	≤ 100 nM
CSCCCn1/c(=N/C(=O)c2cccc(C(F)F)c2)[nH]c2cc(N3CCOCC3=O)ccc21 [Compound 92, (E)-3-(difluoromethyl)-N-(1-(3-(methylthio)propyl)-5-(3-oxomorpholino)-1H-benzo[d]imidazol-2(3H)-ylidene)benzamide]	100 to 1000 nM	≤ 100 nM
CS(=O)(=O)CCn1/c(=N/C(=O)c2cccc(C(F)F)c2)[nH]c2cc(N3CCOCC3=O)ccc21 [Compound 93, (E)-3-(difluoromethyl)-N-(1-(2-(methylsulfonyl)ethyl)-5-(3-oxomorpholino)-1H-benzo[d]imidazol-2(3H)-ylidene)benzamide]	≤ 100 nM	≤ 100 nM
C[S+]([O-])CCn1/c(=N/C(=O)c2cccc(C(F)F)c2)[nH]c2cc(N3CCOCC3=O)ccc21 (centres unmarked) [Compound 94, (E)-3-(difluoromethyl)-N-(1-(2-(methylsulfinyl)ethyl)-5-(3-oxomorpholino)-1H-benzo[d]imidazol-2(3H)-ylidene)benzamide]	100 to 1000 nM	≤ 100 nM
CNS(=O)(=O)c1cccc(C(=O)/N=c2\[nH]c3cc(N4CCOCC4=O)ccc3n2CCCO)c1 [Compound 97, (E)-N-(1-(3-hydroxypropyl)-5-(3-oxomorpholino)-1H-benzo[d]imidazol-2(3H)-ylidene)-3-(N-methylsulfamoyl)benzamide]	≤ 100 nM	≤ 100 nM
NS(=O)(=O)c1cccc(C(=O)/N=c2\[nH]c3cc(N4CCOCC4=O)ccc3n2CCCO)c1 [Compound 100, (E)-N-(1-(3-hydroxypropyl)-5-(3-oxomorpholino)-1H-benzo[d]imidazol-2(3H)-ylidene)-3-sulfamoylbenzamide]	≤ 100 nM	≤ 100 nM
CN(C)S(=O)(=O)c1cccc(C(=O)/N=c2\[nH]c3cc(N4CCOCC4=O)ccc3n2CCCO)c1 [Compound 101, (E)-3-(N,N-dimethylsulfamoyl)-N-(1-(3-hydroxypropyl)-5-(3-oxomorpholino)-1H-benzo[d]imidazol-2(3H)-ylidene)benzamide]	100 to 1000 nM	≤ 100 nM
O=C(/N=c1\[nH]c2cc(N3CCOCC3=O)ccc2n1CCCO)c1ccc2nc[nH]c2c1 [Compound 102, (E)-N-(1-(3-hydroxypropyl)-5-(3-oxomorpholino)-1H-benzo[d]imidazol-2(3H)-ylidene)-1H-benzo[d]imidazole-6-carboxamide]	> 1000 nM	> 1000 nM
CC(F)(F)c1cccc(C(=O)/N=c2\[nH]c3cc(N4CCOCC4=O)ccc3n2CCCO)c1 [Compound 103, (E)-3-(1,1-difluoroethyl)-N-(1-(3-hydroxypropyl)-5-(3-oxomorpholino)-1H-benzo[d]imidazol-2(3H)-ylidene)benzamide]	100 to 1000 nM	≤ 100 nM
O=C(/N=c1\[nH]c2cc(N3CCOCC3=O)ccc2n1CCCO)c1cccc(CF)c1 [Compound 104, (E)-3-(fluoromethyl)-N-(1-(3-hydroxypropyl)-5-(3-oxomorpholino)-1H-benzo[d]imidazol-2(3H)-ylidene)benzamide]	100 to 1000 nM	≤ 100 nM
Cc1cccc(C(=O)/N=c2\[nH]c3cc(N4CCOCC4=O)ccc3n2CCCO)c1 [Compound 105, (E)-N-(1-(3-hydroxypropyl)-5-(3-oxomorpholino)-1H-benzo[d]imidazol-2(3H)-ylidene)-3-methylbenzamide]	100 to 1000 nM	≤ 100 nM
O=C(/N=c1\[nH]c2cc(N3CCOCC3=O)ccc2n1CCCO)c1cccc(Cl)c1 [Compound 106, (E)-3-chloro-N-(1-(3-hydroxypropyl)-5-(3-oxomorpholino)-1H-benzo[d]imidazol-2(3H)-ylidene)benzamide]	100 to 1000 nM	≤ 100 nM
O=C(/N=c1\[nH]c2cc(N3CCOCC3=O)ccc2n1CCCO)c1cccc(-c2cc[nH]c(=O)c2)c1 [Compound 107, (E)-N-(1-(3-hydroxypropyl)-5-(3-oxomorpholino)-1H-benzo[d]imidazol-2(3H)-ylidene)-3-(2-oxo-1,2-dihydropyridin-4-yl)benzamide]	≤ 100 nM	≤ 100 nM
O=C(/N=c1\[nH]c2cc(N3CCNCC3=O)ccc2n1CCCO)c1cccc(C(F)(F)F)c1 [Compound 108, (E)-N-(1-(3-hydroxypropyl)-5-(2-oxopiperazin-1-yl)-1H-benzo[d]imidazol-2(3H)-ylidene)-3-(trifluoromethyl)benzamide]	≤ 100 nM	≤ 100 nM
O=C(/N=c1\[nH]c2cc(N3CCNCC3=O)ccc2n1CCCO)c1cccc(C(F)F)c1 [Compound 109, (E)-3-(difluoromethyl)-N-(1-(3-hydroxypropyl)-5-(2-oxopiperazin-1-yl)-1H-benzo[d]imidazol-2(3H)-ylidene)benzamide]	100 to 1000 nM	≤ 100 nM
CC(=O)N1CCN(c2ccc3c(c2)[nH]/c(=N\C(=O)c2cccc(C(F)F)c2)n3CCCO)C(=O)C1 [Compound 110, (E)-N-(5-(4-acetyl-2-oxopiperazin-1-yl)-(1-(3-hydroxypropyl)-1H-benzo[d]imidazol-2(3H)-ylidene))-3-(difluoromethyl)benzamide]	≤ 100 nM	≤ 100 nM
CN1CCN(c2ccc3c(c2)[nH]/c(=N\C(=O)c2cccc(C(F)F)c2)n3CCCO)C(=O)C1 [Compound 111, (E)-3-(difluoromethyl)-N-(1-(3-hydroxypropyl)-5-(4-methyl-2-oxopiperazin-1-yl)-1H-benzo[d]imidazol-2(3H)-ylidene)benzamide]	100 to 1000 nM	≤ 100 nM
O=C(/N=c1\[nH]c2cc(N3CCN(CC4CC4)CC3=O)ccc2n1CCCO)c1cccc(C(F)F)c1 [Compound 112, (E)-N-(5-(4-(cyclopropylmethyl)-2-oxopiperazin-1-yl)-1-(3-hydroxypropyl)-1H-benzo[d]imidazol-2(3H)-ylidene)-3-(difluoromethyl)benzamide]	≤ 100 nM	≤ 100 nM
O=C(/N=c1\[nH]c2cc(N3CCN(CC(F)(F)F)CC3=O)ccc2n1CCCO)c1cccc(C(F)F)c1 [Compound 113, (E)-3-(difluoromethyl)-N-(1-(3-hydroxypropyl)-5-(2-oxo-4-(2,2,2-trifluoroethyl)piperazin-1-yl)-1H-benzo[d]imidazol-2(3H)-ylidene)benzamide]	100 to 1000 nM	≤ 100 nM
O=C(/N=c1\[nH]c2cc(N3CCOCC3=O)ccc2n1C1(CCO)CCCCC1)c1cccc(C(F)(F)F)c1 [Compound 114, (E)-N-(1-(1-(2-hydroxyethyl)cyclohexyl)-5-(3-oxomorpholino)-1H-benzo[d]imidazol-2(3H)-ylidene)-3-(trifluoromethyl)benzamide]	> 1000 nM	> 1000 nM
O=C(/N=c1\[nH]c2cc(N3CCOCC3=O)ccc2n1C1(CCO)CCCCC1)c1cccc(C(F)F)c1 [Compound 115, (E)-3-(difluoromethyl)-N-(1-(1-(2-hydroxyethyl)cyclohexyl)-5-(3-oxomorpholino)-1H-benzo[d]imidazol-2(3H)-ylidene)benzamide]	> 1000 nM	100 to 1000 nM
O=C(/N=c1\[nH]c2cc(N3CCOCC3=O)ccc2n1C1CCCC(CO)C1)c1cccc(C(F)(F)F)c1 (centres unmarked) [Compound 120, (E)-N-(1-(3-(hydroxymethyl)cyclohexyl)-5-(3-oxomorpholino)-1H-benzo[d]imidazol-2(3H)-ylidene)-3-(trifluoromethyl)benzamide]	100 to 1000 nM	≤ 100 nM
O=C(/N=c1\[nH]c2cc(N3CCOCC3=O)ccc2n1C1CCCC(CO)C1)c1cccc(C(F)F)c1 (centres unmarked) [Compound 121, (E)-3-(difluoromethyl)-N-(1-(3-(hydroxymethyl)cyclohexyl)-5-(3-oxomorpholino)-1H-benzo[d]imidazol-2(3H)-ylidene)benzamide]	100 to 1000 nM	≤ 100 nM
O=C(/N=c1\[nH]c2cc(N3CCOCC3=O)ccc2n1[C@H]1CC[C@@H](CO)CC1)c1cccc(C(F)(F)F)c1 [Compound 122, cis-(E)-N-(1-(4-(hydroxymethyl)cyclohexyl)-5-(3-oxomorpholino)-1H-benzo[d]imidazol-2(3H)-ylidene)-3-(trifluoromethyl)benzamide]	≤ 100 nM	≤ 100 nM
